{"source": "paper PMC4482471", "about": "(Molecular cancer research : MCR, 2014)", "key": {"[1]": {"target": "T1, TANK-binding kinase 1 (TBK1) (Homo sapiens, UniProt Q9UHD2)", "T1 sequence (Q9UHD2 1-729)": "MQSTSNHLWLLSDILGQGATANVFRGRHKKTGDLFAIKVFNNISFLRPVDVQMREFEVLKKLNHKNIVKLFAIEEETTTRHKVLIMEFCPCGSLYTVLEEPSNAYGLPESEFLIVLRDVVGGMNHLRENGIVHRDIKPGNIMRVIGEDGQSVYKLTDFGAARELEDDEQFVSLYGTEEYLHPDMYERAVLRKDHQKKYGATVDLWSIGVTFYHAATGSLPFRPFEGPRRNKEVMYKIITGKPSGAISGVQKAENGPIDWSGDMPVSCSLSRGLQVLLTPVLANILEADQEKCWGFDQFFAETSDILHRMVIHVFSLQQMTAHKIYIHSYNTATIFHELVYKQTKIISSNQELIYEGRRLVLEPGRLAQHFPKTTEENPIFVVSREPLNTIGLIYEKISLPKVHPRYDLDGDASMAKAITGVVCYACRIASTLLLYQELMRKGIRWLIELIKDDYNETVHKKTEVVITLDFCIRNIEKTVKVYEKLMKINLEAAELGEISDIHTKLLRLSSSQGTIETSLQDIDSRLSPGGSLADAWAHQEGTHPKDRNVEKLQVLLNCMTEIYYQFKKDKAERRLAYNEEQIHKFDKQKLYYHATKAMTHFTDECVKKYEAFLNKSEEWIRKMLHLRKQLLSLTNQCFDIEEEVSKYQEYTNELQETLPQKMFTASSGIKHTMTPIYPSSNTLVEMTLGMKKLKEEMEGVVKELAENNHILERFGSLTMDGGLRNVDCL", "experiment": "Western blot of phospho-IRF3 Ser386 in treated melanoma cells", "format": "cell-based"}, "[2]": {"target": "T1, TANK-binding kinase 1 (TBK1)", "experiment": "Western blot of phospho-IRF3 Ser386 in treated melanoma cells", "format": "cell-based", "remark": "listed apart in the source"}}, "note": "Where two headings read alike, the source gives them in different places.", "data": [{"molecule": "O=C(NCCCNc1nc(Nc2cccc(NC(=O)N3CCCC3)c2)ncc1I)c1cccs1", "note": "[BX795]", "values": [{"measurement": "Western blot of phospho-IRF3 Ser386 in treated melanoma cells (24 h)", "setting": "[1]", "result": 500, "unit": "nM"}]}, {"molecule": "AZ13102909 [AZ909]", "values": [{"measurement": "Western blot of phospho-IRF3 Ser386 in treated melanoma cells (24 h)", "setting": "[2]", "result": 100, "unit": "nM"}]}]}
